The values below come from patent US8338565B2, “Macrocyclic compounds for inhibition of tumor necrosis factor alpha” (Ensemble Therapeutics Corporation, priority 2008, dated 2012).

Numbered stars: 1 amine (or outer) side, 2 acyl side, 3 side chain; on linkers, the order of the positions; unused ones are H or OH. Bridge positions count the residues as written; N and C are the ends. Square brackets hold non-standard residues; d marks the D form. Peptide text beside a SMILES is read from it. * marks the point of attachment. Phe(4-CF3) = N[C@@H](Cc1ccc(C(F)(F)F)cc1)C(=O)O; Phe(2,4-Cl2) = N[C@@H](Cc1ccc(Cl)cc1Cl)C(=O)O; Bip = N[C@@H](Cc1ccc(-c2ccccc2)cc1)C(=O)O; dPhe(4-NH2) = Nc1ccc(C[C@@H](N)C(=O)O)cc1; Phe(4-NH2) = Nc1ccc(C[C@H](N)C(=O)O)cc1; d(hPhe) = N[C@H](CCc1ccccc1)C(=O)O; 2Thi = N[C@@H](Cc1cccs1)C(=O)O; d2Thi = N[C@H](Cc1cccs1)C(=O)O; Suc = O=C(CCC(=O)[*:2])[*:1]; Nphe = O=C(O)CNCc1ccccc1; Ac3c = NC1(C(=O)O)CC1; Boc = CC(C)(C)OC(=O)*; GABA = NCCCC(=O)O; βAla = NCCC(=O)O Some results are limits rather than exact numbers.

Test [1] has as its target T1, TNFα / TNFα receptor (TNFα R1/Fc) (Homo sapiens, UniProt P01375).
T1 construct: purchased R&D Systems
Briefly: Inhibition of binding of TNFα to the TNFα receptor (plate ELISA competition). The settings on record: Table 2; read-out: Activity (IC50, inhibition of TNFα binding to TNFα R1/Fc). Summed up: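 Plates were coated with TNFα at 15 nM. Test compound and 8.33 nM receptor-Fc (PBST, 2% DMSO) were first mixed in solution for 30 min at room temperature, then transferred to the plates for another 30 min. Competition was read by absorbance at 450 nm after HRP anti-human IgG Fc detection with TMB.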
For orientation: In an ELISA, binding on a coated surface is turned into a signal by an enzyme label.

For test [2], the system named is TNF-α (degradation of IkB in HeLa cells or A431 cells). The experiment in a line: Human cell-based assay: inhibition of TNF-α induced degradation of IkB. The settings on record: HeLa or A431 cells; for inhibition at 25 µM: 25 μM compound, read-out: Inhibition at Various Compound Concentrations, 25 μM; for inhibition at 5 µM: 5 μM compound, read-out: Inhibition at Various Compound Concentrations, 5 μM; for inhibition at 10 µM: 10 μM compound, read-out: Inhibition at Various Compound Concentrations, 10 μM. As to the method:
We used a human cell-based assay to determine the TNF-α antagonistic activity of the compounds of this invention based upon the ability of the compounds to inhibit the degradation of IkB in those cells. The assay was performed on either HeLa cells or A431 cells.
On Day 1, wells of a 24-well tissue culture plate were seeded with cells that had been harvested from cultures in T-75 flasks by standard trypsin/EDTA treatment. The harvested cells were suspended in EMEM/10% FBS/P/S (100,000 HeLa cells/mL or 200,000 A431 cells/mL) and 1 mL aliquots were placed into each well. The cells were incubated overnight at 37° C. in a humidified CO2 incubator. On day 2, the cells were approximately 95% confluent.
Test and control compounds were diluted to a 1 mM solution by dilution in DMSO. The assay was run in Costar tubes. Into each tube was placed 2.5 or 5.0 μL of test compound (for testing 5 μM and 10 μM concentrations, respectively), 2.5 μL of 100× TNF-α solution (200 ng/mL TNF-α in EMEM containing 1μg/mL cycloheximide) and, for those tubes containing 2.5 μL of compound, an additional 2.5 μL of DMSO. To each tube was then added 0.5 mL of EMEM containing 1μg/mL cycloheximide. Negative control tubes contained either a) no compound, or b) no TNF-α. Tubes were then incubated for 30 minutes at room temperature.
Once incubation had begun, the media was aspirated from the cells in the 24-well plates. Sufficient EMEM/10% FBS/P/S containing 1 ug/mL cycloheximide was then added to cover the cells (approximately 3 mL) and the cells were retuned to the 37° C. humidified CO2 incubator until compound incubation was completed. The media was then aspirated from the cells, 0.2 mL of the compound solution was added and the cells re-incubated at 37° C. for 30 minutes. The plates were then placed on ice, the compound solution was aspirated from each well, and the cells washed once with 1 mL of cold PBS. Cells were then fixed with 500 μL of 3.7% formaldehyde in PBS (“fix solution”) for 20 minutes at room temperature. The fix solution was decanted and the cells permeabilized by 4× washing with 500 uL PBS/0.1% Triton X-100. After the final permeabilization wash, the cells were treated with 500 uL of Odyssey blocking buffer (OBB) and incubated at room temperature with shaking for 90 minutes.
The OBB was decanted and then to each well was then added 125 μL each of mouse anti-IkB CST#4814 (diluted 1:200 in OBB) and rabbit anti-beta-tubulin CST#2146 (diluted 1:200 in OBB). Plates were sealed with parafin and incubated overnight at room temperature with shaking.
On day 3, the antibody solution was removed from the cells and the cells were washed 5× with 0.5 mL PBST for five minutes each on a shaker. To each well was then aded 125 μL of a secondary antibody solution containing goat anti-mouse IgG-IRDye 800 and goat anti-rabbit IgG-IRDye (each diluted 1:500 in OBB+0.2% Tween 20). The plates were covered with aluminum foil and incubated for 1 hour at room temperature with shaking. The secondary antibody solution was removed and the cells washed 3× with 0.5 mL PBST for five minutes each on a shaker. Cells were then scanned by LICOR with the following settings: 700 intensity=6.0, 800 intensity=6.5; microplate2 settings with 3.0 mm offset; 169 resolution. LICOR values were fitted to an equation for a sigmoidal curve and IC50 values calculated from the fitted parameters. […] Blank cells indicate that the compound was not tested at that concentration. Certain compounds that were tested more than once and the values reflect the average of the multiple tests.

T1 sequence (P01375 77-233 limits assumed, species assumed): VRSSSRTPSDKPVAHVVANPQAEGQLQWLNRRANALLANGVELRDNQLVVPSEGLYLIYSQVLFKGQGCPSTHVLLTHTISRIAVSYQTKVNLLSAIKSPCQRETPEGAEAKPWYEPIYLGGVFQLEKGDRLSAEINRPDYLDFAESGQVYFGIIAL

Regarding `O=C1CCC(=O)N[C@H](Cc2cccs2)C(=O)N[C@@H](Cc2ccc(-c3ccccc3)cc2)C(=O)N[C@H](Cc2ccccc2)C(=O)N[C@H](C(=O)O)Cc2ccc(cc2)N1` [Compound 1] ([d2Thi][Bip][dF][Phe(4-NH2)]-OH; linker N-4 via Suc), the IC50 in test [1] fell in the range of 10 to 30 µM. The inhibition at 25 µM in test [2] fell in the range of 10 to 50%.

Regarding `O=C1CCC(=O)N[C@H](CCc2ccccc2)C(=O)N[C@@H](Cc2ccc(C(F)(F)F)cc2)C(=O)N[C@H](Cc2ccccc2)C(=O)N[C@@H](C(=O)N[C@@H](Cc2ccccc2)C(=O)O)Cc2ccc(cc2)N1` [Compound 12] ([d(hPhe)][Phe(4-CF3)][dF][dPhe(4-NH2)]F-OH; linker N-4 via Suc), the IC50 in test [1] was below 10 µM. In addition, in test [2], the inhibition at 5 µM fell in the range of 10 to 50% and the inhibition at 10 µM was in the range of 10 to 50%.

As to `O=C(O)CCNC(=O)[C@H]1Cc2ccc(cc2)NC(=O)CCC(=O)N[C@H](CCc2ccccc2)C(=O)N[C@@H](Cc2ccc(C(F)(F)F)cc2)C(=O)N[C@H](Cc2ccccc2)C(=O)N1` [Compound 15] ([d(hPhe)][Phe(4-CF3)][dF][dPhe(4-NH2)][βAla]-OH; linker N-4 via Suc), the IC50 in test [1] fell in the range of 10 to 30 µM. Further, in test [2], the inhibition at 10 µM was below 10%.

Regarding `O=C(N[C@H](Cc1ccccc1)C(=O)O)[C@@H]1Cc2ccc(cc2)NC(=O)[C@H](O)[C@@H](O)C(=O)N[C@H](Cc2cccs2)C(=O)N[C@@H](Cc2ccc(-c3ccccc3)cc2)C(=O)N[C@H](Cc2ccccc2)C(=O)N1` [Compound 16], in test [1], the IC50 was below 10 µM. Moreover, the inhibition at 10 µM in test [2] is below 10%.

As for `O=C1CCC(=O)N[C@H](CCc2ccccc2)C(=O)N[C@@H](Cc2ccc(C(F)(F)F)cc2)C(=O)N[C@H](Cc2ccccc2)C(=O)N[C@H](C(=O)NC2(C(=O)O)CC2)Cc2ccc(cc2)N1` [Compound 18] ([d(hPhe)][Phe(4-CF3)][dF][Phe(4-NH2)][Ac3c]-OH; linker N-4 via Suc), the IC50 in test [1] fell in the range of 10 to 30 µM. Further, in test [2], the inhibition at 5 µM lay in the range of 50 to 80% and the inhibition at 10 µM lay within 10 to 50%.

Turning to `O=C(O)CNC(=O)[C@@H]1Cc2ccc(cc2)NC(=O)CCC(=O)N[C@H](Cc2cccs2)C(=O)N[C@@H](Cc2ccc(-c3ccccc3)cc2)C(=O)N[C@H](Cc2ccccc2)C(=O)N1` [Compound 19] ([d2Thi][Bip][dF][Phe(4-NH2)]G-OH; linker N-4 via Suc), in test [1], the IC50 is 10 to 30 µM. Further, in test [2], the inhibition at 25 µM is below 10%.

As for `C[C@H](NC(=O)[C@@H]1Cc2ccc(cc2)NC(=O)CCC(=O)N[C@H](Cc2cccs2)C(=O)N[C@@H](Cc2ccc(-c3ccccc3)cc2)C(=O)N[C@H](Cc2ccccc2)C(=O)N1)C(=O)O` [Compound 20] ([d2Thi][Bip][dF][Phe(4-NH2)]A-OH; linker N-4 via Suc), in test [1], the IC50 was below 10 µM. Also, the inhibition at 25 µM in test [2] was below 10%.

Turning to `O=C(O)CCNC(=O)[C@@H]1Cc2ccc(cc2)NC(=O)CCC(=O)N[C@H](Cc2cccs2)C(=O)N[C@@H](Cc2ccc(-c3ccccc3)cc2)C(=O)N[C@H](Cc2ccccc2)C(=O)N1` [Compound 21] ([d2Thi][Bip][dF][Phe(4-NH2)][βAla]-OH; linker N-4 via Suc), the IC50 in test [1] was below 10 µM. The inhibition at 25 µM in test [2] is below 10%.

With `C[C@@H](NC(=O)[C@@H]1Cc2ccc(cc2)NC(=O)CCC(=O)N[C@H](Cc2cccs2)C(=O)N[C@@H](Cc2ccc(-c3ccccc3)cc2)C(=O)N[C@H](Cc2ccccc2)C(=O)N1)C(=O)O` [Compound 24] ([d2Thi][Bip][dF][Phe(4-NH2)][dA]-OH; linker N-4 via Suc), in test [1], the IC50 fell in the range of 30 to 100 µM. In addition, the inhibition at 25 µM in test [2] was below 10%.

Consider `CC(C)[C@H](NC(=O)[C@@H]1Cc2ccc(cc2)NC(=O)CCC(=O)N[C@H](Cc2cccs2)C(=O)N[C@@H](Cc2ccc(-c3ccccc3)cc2)C(=O)N[C@H](Cc2ccccc2)C(=O)N1)C(=O)O` [Compound 26] ([d2Thi][Bip][dF][Phe(4-NH2)]V-OH; linker N-4 via Suc), for which the IC50 in test [1] was in the range of 10 to 30 µM. Also, in test [2], the inhibition at 25 µM is 10 to 50%.

For `COC(=O)[C@H](CC(=O)O)NC(=O)[C@@H]1Cc2ccc(cc2)NC(=O)CCC(=O)N[C@H](Cc2cccs2)C(=O)N[C@@H](Cc2ccc(-c3ccccc3)cc2)C(=O)N[C@H](Cc2ccccc2)C(=O)N1` [Compound 29] ([d2Thi][Bip][dF][Phe(4-NH2)]D-OMe; linker N-4 via Suc), the IC50 in test [1] was below 10 µM. Also, the inhibition at 25 µM in test [2] was below 10%.

For the compound `O=C(O)CCCNC(=O)[C@@H]1Cc2ccc(cc2)NC(=O)CCC(=O)N[C@H](Cc2cccs2)C(=O)N[C@@H](Cc2ccc(-c3ccccc3)cc2)C(=O)N[C@H](Cc2ccccc2)C(=O)N1` [Compound 34] ([d2Thi][Bip][dF][Phe(4-NH2)][GABA]-OH; linker N-4 via Suc), the IC50 in test [1] is below 10 µM. Besides, in test [2], the inhibition at 25 µM was below 10%.

For the compound `CC(C)(C)OC(=O)NCCCC[C@H](NC(=O)[C@@H]1Cc2ccc(cc2)NC(=O)CCC(=O)N[C@H](Cc2cccs2)C(=O)N[C@@H](Cc2ccc(-c3ccccc3)cc2)C(=O)N[C@H](Cc2ccccc2)C(=O)N1)C(=O)O` [Compound 35] ([d2Thi][Bip][dF][Phe(4-NH2)]K(Boc)-OH; linker N-4 via Suc), the IC50 in test [1] lay within 10 to 30 µM. Also, the inhibition at 25 µM in test [2] is 50 to 80%.

Consider `O=C(O)CN(Cc1ccccc1)C(=O)[C@@H]1Cc2ccc(cc2)NC(=O)CCC(=O)N[C@H](Cc2cccs2)C(=O)N[C@@H](Cc2ccc(-c3ccccc3)cc2)C(=O)N[C@H](Cc2ccccc2)C(=O)N1` [Compound 36] ([d2Thi][Bip][dF][Phe(4-NH2)][Nphe]-OH; linker N-4 via Suc), for which the IC50 in test [1] is below 10 µM. In test [2], the inhibition at 5 µM fell in the range of 10 to 50%, the inhibition at 10 µM was in the range of 50 to 80% and the inhibition at 25 µM was below 10%.

Regarding `O=C1CCC(=O)N[C@H](Cc2cccs2)C(=O)N[C@@H](Cc2ccc(-c3ccccc3)cc2)C(=O)N[C@H](Cc2ccccc2)C(=O)N[C@H](C(=O)NC2(C(=O)O)CC2)Cc2ccc(cc2)N1` [Compound 39] ([d2Thi][Bip][dF][Phe(4-NH2)][Ac3c]-OH; linker N-4 via Suc), the IC50 in test [1] was below 10 µM. Moreover, the inhibition at 10 µM in test [2] fell in the range of 10 to 50%.

Take `O=C1CCC(=O)N[C@@H](Cc2cccs2)C(=O)N[C@@H](Cc2ccc(-c3ccccc3)cc2)C(=O)N[C@H](Cc2ccccc2)C(=O)N[C@H](C(=O)O)Cc2ccc(cc2)N1` [Compound 43] ([2Thi][Bip][dF][Phe(4-NH2)]-OH; linker N-4 via Suc): in test [1], the IC50 is above 100 µM. The inhibition at 25 µM in test [2] is below 10%.

On to `O=C1CCC(=O)N[C@H](Cc2cccs2)C(=O)N[C@@H](Cc2ccc(-c3ccccc3)cc2)C(=O)N[C@H](CCc2ccccc2)C(=O)N[C@H](C(=O)O)Cc2ccc(cc2)N1` [Compound 47] ([d2Thi][Bip][d(hPhe)][Phe(4-NH2)]-OH; linker N-4 via Suc), for which the IC50 in test [1] is below 10 µM. Further, in test [2], the inhibition at 10 µM was below 10%.

`O=C1CCC(=O)N[C@H](Cc2cccs2)C(=O)N[C@@H](Cc2ccc(Cl)cc2Cl)C(=O)N[C@H](Cc2ccccc2)C(=O)N[C@H](C(=O)O)Cc2ccc(cc2)N1` [Compound 82] ([d2Thi][Phe(2,4-Cl2)][dF][Phe(4-NH2)]-OH; linker N-4 via Suc): the IC50 in test [1] is 10 to 30 µM. Further, in test [2], the inhibition at 5 µM was below 10% and the inhibition at 10 µM was below 10%.
